# Columns and labels:
# Type in all cases: cell-based
# [1] = test system: mast cells purified from 300g male Sprague/Dawley rats; assay: Histamine secretion from purified rat mast cells, 15 min preincubation, washed, C48/80 stimulation; details: for Mast Cell Secretion, % of Total: 15 min preincubation, washed, then C48/80 0.1 μg/ml 10 min
# Description: Here, we investigated the effect of the polysaccharide chondroitin sulfate and of the flavonoid quercetin on histamine secretion from mast cells purified from 300g male Sprague/Dawley rats. Mast cells were preincubated with the test compound for 15 min at 37° C. and washed twice prior to stimulation with 0.1 μg/ml of the mast cell secretagogue compound 48/80 (C48/80) for 10 min. […] A combination of these naturally occurring products available OTC could be useful for the prevention of stress-induced gastrointestinal syndromes, such as irritable bowel syndrome or inflammatory bowel disease.
# [2] = test system: mast cells purified from peritoneal cavities of male Sprague/Dawley rats; assay: Histamine secretion from purified rat peritoneal mast cells after saccharide preincubation and wash, stimulated with C48/80 or SP; details: preincubated with 10^−5 M saccharide 60 min 37° C., washed twice; for Mast Cell Secretion (% inhibition), C48/80: stimulated with 10^−5 M C48/80, n = 4; for Mast Cell Secretion (% inhibition), SP: stimulated with 10^−5 M Substance P, n = 3
# Description: We studied the effect of chondroitin sulfate on histamine secretion from mast cells purified from peritoneal cavities of male Sprague/Dawley rats (300g, Charles River) over 25% Metrizamide (Accurate Scientific). Mast cells were preincubated with 10^−5 M saccharide for 60 min at 37° C. followed by two washes and resuspension in saccharide-free medium prior to stimulation with 10^−5 M of the mast cell secretagogue, compound 48/80 (C48/80) or the neuropeptide Substance P (SP). As the cells were washed free of saccharide, any inhibitory effect was not due to any interference with binding of C48/80 or SP to the cell surface. Consequently, this effect is distinct from reports showing that certain monosaccharide-containing lectins inhibit C48/80-induced mast cell secretion (Matsuda, K., et al., Jpn. J. Pharmacol. 64:1, 1994).
# [3] = test system: human leukemic mast cells; assay: Proliferation of cultured human leukemic mast cells; details: for Inhibition (%) of human leukemic mast cell proliferation: n = 5
# From the text: Cell viability was about 90% or better.
compound,measurement,setting,value
"O=c1c(O)c(-c2ccc(O)c(O)c2)oc2cc(O)cc(O)c12 [Quercetin, quercetin]","Mast Cell Secretion, % of Total",[1]; test compound 10^−6M,30.5 ± 0.5%
CC(=O)N[C@H]1C(O)O[C@H](CO)[C@@H](O)[C@@H]1O (stereo partly drawn) [N-acetyl-glucosamine],"Mast Cell Secretion (% inhibition), C48/80",[2],37.4 ± 10.5%
same,"Mast Cell Secretion (% inhibition), SP",[2],30.8 ± 6.5%
chondroitin sulfate,"Mast Cell Secretion (% inhibition), C48/80",[2],75.4 ± 3.6%
same,"Mast Cell Secretion (% inhibition), SP",[2],38.1 ± 12.2%
same,maximal inhibition of mast cell activation,"[1]; 10^−4 M, C48/80 stimulation",83%
same,"Mast Cell Secretion, % of Total",[1]; test compound 10^−4M,5.3 ± 1.3%
same,"Mast Cell Secretion, % of Total",[1]; test compound 10^−5M,15.3 ± 2.7%
same,"Mast Cell Secretion, % of Total",[1]; test compound 10^−6M,31.0 ± 2.9%
same,Inhibition (%) of human leukemic mast cell proliferation,"[3]; Day 3, 10^−4M",57.8 ± 13.3%
same,Inhibition (%) of human leukemic mast cell proliferation,"[3]; Day 3, 10^−5M",44.3 ± 12.7%
same,Inhibition (%) of human leukemic mast cell proliferation,"[3]; Day 3, 10^−6M",27.2 ± 12.1%
same,Inhibition (%) of human leukemic mast cell proliferation,"[3]; Day 3, 10^−7M",12.6 ± 9.6%
same,Inhibition (%) of human leukemic mast cell proliferation,"[3]; Day 4, 10^−4M",53.1 ± 8.9%
same,Inhibition (%) of human leukemic mast cell proliferation,"[3]; Day 4, 10^−5M",38.9 ± 9.1%
same,Inhibition (%) of human leukemic mast cell proliferation,"[3]; Day 4, 10^−6M",25.3 ± 9.6%
same,Inhibition (%) of human leukemic mast cell proliferation,"[3]; Day 4, 10^−7M",14.9 ± 6.9%
same,Inhibition (%) of human leukemic mast cell proliferation,"[3]; Day 5, 10^−4M",52.4 ± 13.9%
same,Inhibition (%) of human leukemic mast cell proliferation,"[3]; Day 5, 10^−5M",31.2 ± 15.8%
same,Inhibition (%) of human leukemic mast cell proliferation,"[3]; Day 5, 10^−6M",20.7 ± 15.2%
same,Inhibition (%) of human leukemic mast cell proliferation,"[3]; Day 5, 10^−7M",14.7 ± 6.8%
same,Cell viability,[3]; human leukemic mast cells cultured in the presence of chondroitin sulfate,≥ 90%
N[C@H]1C(O)O[C@H](CO)[C@@H](O)[C@@H]1O.O=S(=O)(O)O (stereo partly drawn) [D-Glucosamine sulfate],"Mast Cell Secretion (% inhibition), C48/80",[2],33.7 ± 1.5%
same,"Mast Cell Secretion (% inhibition), SP",[2],27.5 ± 18.1%
